Assay results from paper PMC9768162, “Synthesis of macrocyclic nucleoside antibacterials and their interactions with MraY” (Nature Communications, 2022).
Converted amounts (≈) assume the structure as drawn. Like-named read-outs stand apart in the source and are kept apart here. Marks after values point to notes of the source that are not given here.

Assays:
[1] = tested on: E. faecium; parameters: method as in PMID 24014169; conditions: cited from earlier work
[2] = tested on: A. baumannii; parameters: method as in PMID 24014169; conditions: A. baumannii ATCC 19606; cited from earlier work
[3] = tested on: E. cloacae; parameters: method as in PMID 24014169; conditions: E. cloacae ATCC 13047; cited from earlier work
[4] = tested on: P. aeruginosa; parameters: method as in PMID 24014169; conditions: P. aeruginosa ATCC 15692 (footnote e); cited from earlier work
[5] = tested on: E. faecalis; parameters: method as in PMID 24014169; conditions: E. faecalis ATCC 29212; cited from earlier work
[6] = tested on: S. aureus; conditions: S. aureus ATCC 6538P, cited from earlier work
[7] = tested on: Gram-positive bacteria; parameters: method as in PMID 24014169; conditions: range over strains; cited from earlier work
[8] = tested on: K. pneumoniae; parameters: method as in PMID 24014169; conditions: K. pneumoniae ATCC 13883; cited from earlier work
[9] = tested on: MraY (E. coli); parameters: method as in PMID 24014169; conditions: cited from earlier work
[10] = tested on: P. aeruginosa; assay: Antibacterial activity, MIC by microdilution broth method (CLSI); type: cell-based; conditions: Pseudomonas aeruginosa, ATCC27853; P. aeruginosa ATCC 27853; CA-MHB, 37 °C, 20 h
[11] = tested on: E. cloacae; assay: as above; type: cell-based; conditions: Enterobacter cloacae, ATCC13047; E. cloacae ATCC 13047; CA-MHB, 37 °C, 20 h
[12] = tested on: S. aureus; assay: as above; type: cell-based, Staphylococcus aureus; conditions: Staphylococcus aureus
[13] = tested on: M. avium; assay: MIC in 7H9 liquid medium, 2 weeks; type: cell-based; conditions: Mycobacterium avium, ATCC25291, 336 h, M. avium ATCC 25291, 37 °C, minimum concentration inhibiting at least 50% of growth
[14] = tested on: vancomycin-resistant Enterococci (VRE), clinically isolated E. faecium and E. faecalis; type: cell-based; conditions: VRE E. faecium ATCC 51559, 51858, E. faecalis 51299 and clinically isolated E. faecium and E. faecalis
[15] = tested on: M. tuberculosis; assay: MIC in 7H9 liquid medium, 2 weeks; type: cell-based; conditions: Mycobacterium tuberculosis, 336 h, M. tuberculosis H37Rv, 37 °C, minimum concentration inhibiting at least 50% of growth
[16] = tested on: E. coli; assay: Antibacterial activity, MIC by microdilution broth method (CLSI); conditions: E. coli ATCC 25922; CA-MHB, 37 °C, 20 h
[17] = tested on: E. faecalis; assay: as above; type: cell-based; conditions: for MIC: Enterococcus faecalis
[18] = target: T1, MraYSA (S. aureus MraY enzyme) (Staphylococcus aureus, UniProt Q2FZ93); assay: Fluorescence-based MraY inhibitory assay (dansylated Park's nucleotide); conditions: for MraYSA activity, source data of Fig. 7b, average: average of n=1-3
T1 sequence (Q2FZ93 1-321): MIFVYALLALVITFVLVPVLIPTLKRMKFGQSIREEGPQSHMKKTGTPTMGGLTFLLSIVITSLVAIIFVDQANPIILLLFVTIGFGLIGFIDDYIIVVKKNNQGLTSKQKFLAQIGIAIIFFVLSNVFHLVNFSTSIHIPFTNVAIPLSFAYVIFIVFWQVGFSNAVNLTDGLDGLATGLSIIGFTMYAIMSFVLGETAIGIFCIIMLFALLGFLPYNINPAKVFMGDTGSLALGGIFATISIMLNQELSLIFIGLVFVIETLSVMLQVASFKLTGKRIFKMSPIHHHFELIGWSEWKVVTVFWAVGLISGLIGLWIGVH

[19] = tested on: E. faecium; assay: Antibacterial activity, MIC by microdilution broth method (CLSI); type: cell-based, Enterococcus faecium; conditions: for MIC: Enterococcus faecium, read-out: MIC
[20] = tested on: A. baumannii; assay: as above; type: cell-based; conditions: Acinetobacter baumannii, ATCC19606; A. baumannii ATCC 19606; CA-MHB, 37 °C, 20 h
[21] = tested on: K. pneumoniae; assay: as above; type: cell-based; conditions: Klebsiella pneumoniae, ATCC13883; K. pneumoniae ATCC 13883; CA-MHB, 37 °C, 20 h

For `CCCC(C)CC(C)CC(C)CC(C)/C=C(C)/C=C/C(O)C(C)C(=O)OC1C(O)CN2CC1NC[C@H]1O[C@@H](O[C@H]([C@H]3O[C@@H](n4ccc(=O)[nH]c4=O)[C@H](O)[C@@H]3OS(=O)(=O)O)[C@H]2C(=O)O)[C@H](O)[C@@H]1O` (stereo partly drawn) [Sphaerimicin A], the MIC ([1]; (footnote c)) is listed as 2^c μg/mL, the MIC ([1]; E. faecium ATCC 19434) is listed as 2 µg/mL (≈ 2.05 µM) and the MIC [2] is listed as >128 µg/mL. For the same compound, the MIC [3] was >128 µg/mL, the MIC [4] was >128^e μg/mL and the MIC [5] was 2 µg/mL (≈ 2.05 µM). The MIC [6] was 4^d μg/mL, the MIC ([6]; listed as sphaerimicin A) was 4 µg/mL (≈ 4.1 µM) and the “MIC against Gram-positive bacteria” value [7] was 1 to 16 µg/mL. For the same compound, the MIC [8] was >128 µg/mL, the IC50 [9] was 13.9 nM and the “IC50 for MraY” value [9] was 0.0135 µg/mL.
With `CCCCCCCCCCCCCCCC(=O)O[C@@H]1C[C@@H]2CN(C1)[C@H](C(=O)O)[C@@H]([C@H]1O[C@@H](n3ccc(=O)[nH]c3=O)[C@H](O)[C@@H]1O)O[C@@H]1O[C@H](CN2)[C@@H](O)[C@H]1O` [SPM-3] the MIC [10] was > 64 µg/mL, the MIC [11] was > 64 µg/mL and the MIC ([12]; ATCC29213, 20 h, S. aureus ATCC 29213, CA-MHB, 37 °C, 20 h) was 8 µg/mL (≈ 10.4 µM). For the same compound, the MIC ([12]; MRSA, 20 h, S. aureus (MRSA) JE2, CA-MHB, 37 °C, performed once) was 8 µg/mL (≈ 10.4 µM), the MIC ([12]; MRSA, clinically isolated MRSA #1958) was 16 µg/mL (≈ 20.8 µM) and the MIC ([12]; MRSA, clinically isolated MRSA #2071) was 16 µg/mL (≈ 20.8 µM). The MIC ([12]; MRSA, clinically isolated MRSA #2110) was > 64 µg/mL, the MIC ([12]; MRSA, clinically isolated MRSA #2310) was 32 µg/mL (≈ 41.6 µM) and the MIC ([12]; MRSA, clinically isolated MRSA #2334) was > 64 µg/mL. The MIC ([12]; MRSA, clinically isolated MRSA #2931) was 4 µg/mL (≈ 5.2 µM), the MIC ([12]; MRSA, clinically isolated MRSA #2932) was 32 µg/mL (≈ 41.6 µM) and the MIC ([12]; MRSA, clinically isolated MRSA #2933) was 8 µg/mL (≈ 10.4 µM). For the same compound, the MIC ([12]; MRSA, clinically isolated MRSA #2934) was 8 µg/mL (≈ 10.4 µM), the MIC ([12]; MRSA, clinically isolated MRSA #2935) was 32 µg/mL (≈ 41.6 µM) and the MIC [13] was 4 µg/mL (≈ 5.2 µM). The “MIC (range over strains)” value [14] was 0.5 to 8 µg/mL, the MIC [15] was 16 µg/mL (≈ 20.8 µM) and the MIC [16] was >64 µg/mL. It also gave an MIC ([17]; ATCC 51299 / VRE, E. faecalis (VRE) ATCC 51299) of 1 µg/mL (≈ 1.3 µM), an MIC ([17]; clinically isolated E. faecalis strain 21) of 0.5 µg/mL (≈ 0.65 µM) and an MIC ([17]; clinically isolated E. faecalis strain 22) of 0.5 µg/mL (≈ 0.65 µM). For the same compound, the MIC ([17]; clinically isolated E. faecalis strain 23) was 1 µg/mL (≈ 1.3 µM), the MIC ([17]; clinically isolated E. faecalis strain 24) was 1 µg/mL (≈ 1.3 µM) and the MIC ([17]; clinically isolated E. faecalis strain 25) was 0.5 µg/mL (≈ 0.65 µM). For the same compound, the MIC ([17]; clinically isolated E. faecalis strain 26) was 0.5 µg/mL (≈ 0.65 µM), the MIC ([17]; clinically isolated E. faecalis strain 27) was 0.5 µg/mL (≈ 0.65 µM) and the MIC ([17]; clinically isolated E. faecalis strain 28) was 1 µg/mL (≈ 1.3 µM). The MIC ([17]; clinically isolated E. faecalis strain 29) was 1 µg/mL (≈ 1.3 µM), the MIC ([17]; clinically isolated E. faecalis strain 30) was 0.5 µg/mL (≈ 0.65 µM) and the MIC ([17]; clinically isolated E. faecalis strain 31) was 1 µg/mL (≈ 1.3 µM). The MIC ([17]; clinically isolated E. faecalis strain 32) was 1 µg/mL (≈ 1.3 µM), the MIC ([17]; clinically isolated E. faecalis strain 33) was 1 µg/mL (≈ 1.3 µM) and the MIC ([17]; clinically isolated E. faecalis strain 34) was 0.5 µg/mL (≈ 0.65 µM). For the same compound, the MIC ([17]; clinically isolated E. faecalis strain 35) was 1 µg/mL (≈ 1.3 µM), the “MIC (range over strains)” value ([17]; clinically isolated E. faecalis (15 strains)) was 0.5 to 1 µg/mL and the IC50 [18] was 41 nM. The “MraYSA activity, source data of Fig. 7b, average” value (shortened to “MraYSA activity, source data”) ([18]; compound 0.0001 µM) was 97.0831, the “MraYSA activity, source data” value ([18]; compound 0.001 µM) was 91.2486 and the “MraYSA activity, source data” value ([18]; compound 0.01 µM) was 63.9982. For the same compound, the “MraYSA activity, source data” value ([18]; compound 0.1 µM) was 42.189, the “MraYSA activity, source data” value ([18]; compound 1 µM) was 10.7538 and the “MraYSA activity, source data” value ([18]; compound 10 µM) was 6.7446. For the same compound, the “MraYSA activity, source data” value ([18]; compound 100 µM) was 3.028, the “fold weaker compared to SPM-1 (MraYSA IC50)” value ([18]; ratio of IC50 values, SPM-3 vs SPM-1) was 4.5 fold and the MIC ([19]; ATCC35667, 20 h, E. faecium ATCC 35667, CA-MHB, 37 °C, 20 h) was 2 µg/mL (≈ 2.6 µM). It also gave an MIC ([19]; ATCC 51559 / VRE, E. faecium (VRE) ATCC 51559) of 2 µg/mL (≈ 2.6 µM), an MIC ([19]; ATCC 51858 / VRE, E. faecium (VRE) ATCC 51858) of 8 µg/mL (≈ 10.4 µM) and an MIC ([19]; clinically isolated E. faecium strain 1) of 2 µg/mL (≈ 2.6 µM). For the same compound, the MIC ([19]; clinically isolated E. faecium strain 2) was 2 µg/mL (≈ 2.6 µM), the MIC ([19]; clinically isolated E. faecium strain 3) was 4 µg/mL (≈ 5.2 µM) and the MIC ([19]; clinically isolated E. faecium strain 4) was 1 µg/mL (≈ 1.3 µM). It also gave an MIC ([19]; clinically isolated E. faecium strain 5) of 2 µg/mL (≈ 2.6 µM), an MIC ([19]; clinically isolated E. faecium strain 7) of 2 µg/mL (≈ 2.6 µM) and an MIC ([19]; clinically isolated E. faecium strain 8) of 2 µg/mL (≈ 2.6 µM). For the same compound, the MIC ([19]; clinically isolated E. faecium strain 9) was 1 µg/mL (≈ 1.3 µM), the MIC ([19]; clinically isolated E. faecium strain 10) was 1 µg/mL (≈ 1.3 µM) and the MIC ([19]; clinically isolated E. faecium strain 11) was 4 µg/mL (≈ 5.2 µM). The MIC ([19]; clinically isolated E. faecium strain 13) was 1 µg/mL (≈ 1.3 µM), the MIC ([19]; clinically isolated E. faecium strain 14) was 0.5 µg/mL (≈ 0.65 µM) and the MIC ([19]; clinically isolated E. faecium strain 15) was 2 µg/mL (≈ 2.6 µM). For the same compound, the “MIC (range over strains)” value ([19]; clinically isolated E. faecium (14 strains)) was 0.5 to 4 µg/mL, the MIC [20] was > 64 µg/mL and the MIC [21] was > 64 µg/mL.
